Assay results taken from publication PMC3230703 (Journal of molecular biology, 2011).

Biological target: GBSSrtC1 (SAG2603 V/R sortase C1) (Streptococcus agalactiae, UniProt Q8E0S7)
Assay: NMR
Assay type: binding
Conditions: irreversible cysteine protease inhibitor; in solution

CC(C)C[C@H](NC(=O)[C@H]1O[C@@H]1C(=O)O)C(=O)NCCCCN=C(N)N [E64]
NMR (results not shown): inhibitors MTSET and E64 in solution was confirmed by mass spectrometry and NMR, respectively
